One data set concerns the target T1, human NMB receptor (BB1) (Homo sapiens, UniProt P28336).
T1 construct: expressed in transfected cells; membranes prepared from the cells
Briefly: BB1 binding assay ([125I][Tyr4]bombesin displacement, CHO-K1 membranes). The settings on record: for Ki: Table 1, human NMB receptor binding affinity, Ki from IC50 by Cheng-Prusoff, read-out: NMB Ki. In outline:
(§1)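 Competition against <0.1 nM [125I][Tyr4]bombesin, 60 min for the NMB receptor and 90 min for the GRP receptor, using homogenised membranes of human-receptor-expressing CHO-K1 cells in pH 7.4 Tris buffer. Bound label was filtered and gamma-counted, with 1 μM bombesin as nonspecific. Ki values came from IC50 via Cheng-Prusoff.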

The next data set addresses T2, human GRP receptor (BB2) (Homo sapiens, UniProt P30550).
T2 construct: expressed in transfected cells; membranes prepared from the cells
Briefly: BB2 binding assay ([125I][Tyr4]bombesin displacement, CHO-K1 membranes). In outline:
as §1

Where [1] appears, read: second 'TABLE 4', N-terminal urethane derivatives of Intermediate III-7.
Setting [2] is: binding studies to the bombesin receptors.
[3] abbreviates: Table 3, N-acyl derivatives of Intermediate III-7.

Where two headings read alike, the source gives them in different places.

One may read the melting point as the temperature of the solid-liquid transition. A word on the IC50: it is the midpoint of a concentration-inhibition curve.

T1 sequence (P28336 whole entry): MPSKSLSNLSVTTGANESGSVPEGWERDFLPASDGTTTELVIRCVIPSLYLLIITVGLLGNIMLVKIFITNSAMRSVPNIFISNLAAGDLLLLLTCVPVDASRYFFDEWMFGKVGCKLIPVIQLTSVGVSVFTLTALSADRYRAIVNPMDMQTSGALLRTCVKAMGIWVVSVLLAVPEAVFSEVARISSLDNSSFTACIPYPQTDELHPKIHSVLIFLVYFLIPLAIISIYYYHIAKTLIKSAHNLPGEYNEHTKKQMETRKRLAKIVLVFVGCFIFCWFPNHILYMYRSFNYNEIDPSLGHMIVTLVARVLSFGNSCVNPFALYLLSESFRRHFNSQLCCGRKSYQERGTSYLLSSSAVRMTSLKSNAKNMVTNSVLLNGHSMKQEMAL
T2 sequence (P30550 whole entry): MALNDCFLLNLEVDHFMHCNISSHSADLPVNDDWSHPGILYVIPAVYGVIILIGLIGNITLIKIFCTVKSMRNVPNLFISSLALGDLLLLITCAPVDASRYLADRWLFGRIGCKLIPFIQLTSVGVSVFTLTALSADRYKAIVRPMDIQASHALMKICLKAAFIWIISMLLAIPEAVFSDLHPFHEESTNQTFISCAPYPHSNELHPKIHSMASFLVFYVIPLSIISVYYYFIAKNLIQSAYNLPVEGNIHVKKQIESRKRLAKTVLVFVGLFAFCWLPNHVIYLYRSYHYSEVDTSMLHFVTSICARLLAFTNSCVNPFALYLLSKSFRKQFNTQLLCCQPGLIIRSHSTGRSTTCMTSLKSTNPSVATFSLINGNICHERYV

On to `C[C@@](Cc1c[nH]c2ccccc12)(Nc1nc(-c2ccc([N+](=O)[O-])cc2)co1)C(=O)NCC(=O)c1ccccc1` [Example 11, (S)-3-(1H-Indol-3-yl)-2-methyl-2-[4-(4-nitro-phenyl)-oxazol-2-ylamino]-N-(2-oxo-2-phenyl-ethyl)-propionamide], for which the melting point lay in the range of 80 to 90 °C. Besides, the Ki at human NMB receptor (BB1) was found to be 5.58 µM.
For `C[C@@](Cc1c[nH]c2ccccc12)(NC(=O)OCc1cccc(C(F)(F)F)c1)C(=O)NCC1(c2ccccn2)CCCCC1` [Example 107, {(S)-2-(1H-Indol-3-yl)-1-methyl-1-[(1-pyridin-2-yl-cyclohexylmethyl)-carbamoyl]-ethyl}-carbamic acid 3-trifluoromethyl-benzyl ester], the IC50 on human GRP receptor (BB2) (setting [1]) was greater than 10 µM; at human NMB receptor (BB1) (setting [1]), 0.182 µM.
On to `COc1ccc(C2(CNC(=O)[C@](C)(Cc3c[nH]c4ccccc34)NC(=O)c3cc4ccccc4[nH]3)CCCCC2)nc1` [Example 86, 1H-Indole-2-carboxylic Acid ((S)-2-(1H-indol-3-yl)-1-{[1-(5-methoxy-pyridin-2-yl)-cyclohexylmethyl]-carbamoyl}-1-methyl-ethyl)-amide], for which the IC50 at human GRP receptor (BB2) (setting [2]) stood at 0.119 µM; at human NMB receptor (BB1) (setting [2]), 0.011 µM.
Turning to `Cc1ccccc1C(=O)N[C@@](C)(Cc1c[nH]c2ccccc12)C(=O)NCC1(c2ccccn2)CCCCC1` [Example 47, N—{(S)-2-(1H-Indol-3-yl)-1-methyl-1-[(1-pyridin-2-yl-cyclohexylmethyl)-carbamoyl]-ethyl}-2-methyl-benzamide], the IC50 was greater than 10 µM on human GRP receptor (BB2) (setting [3]) and 3.28 µM on human NMB receptor (BB1) (setting [3]).
As to `COc1ccc(CC(=O)N[C@@](C)(Cc2c[nH]c3ccccc23)C(=O)NCC2(c3ccccn3)CCCCC2)cc1` [Example 82, (S)-3-(1H-Indol-3-yl)-2-[2-(4-methoxy-phenyl)-ethanoylamino]-2-methyl-N-(1-pyridin-2-yl-cyclohexylmethyl)-propionamide], the IC50 on human GRP receptor (BB2) (setting [3]) is greater than 10 µM; on human NMB receptor (BB1) (setting [3]), 1.69 µM.
Consider “(S)-3-(1H-Indol-3-yl)-2-methyl-N-(1-pyridin-2-yl-cyclohexylmethyl)-2-(2-p-tolyl-ethanoylamino)-propionamide [Example 51]”, for which the IC50 on human GRP receptor (BB2) (setting [3]) is greater than 10 µM; on human NMB receptor (BB1) (setting [3]) it was 0.944 µM.
The corresponding values for `C[C@@](Cc1c[nH]c2ccccc12)(NC(=O)c1cccc(C#N)c1)C(=O)NCC1(c2ccccn2)CCCCC1` [Example 38, 3-Cyano-N—{(S)-2-(1H-indol-3-yl)-1-methyl-1-[(1-pyridin-2-yl-cyclohexylmethyl)-carbamoyl]-ethyl}-benzamide] are greater than 10 µM and 2.04 µM.
The like results for `C[C@@](Cc1c[nH]c2ccccc12)(NC(=O)c1ccccc1[N+](=O)[O-])C(=O)NCC1(c2ccccn2)CCCCC1` [Example 45, N—{(S)-2-(1H-Indol-3-yl)-1-methyl-1-[(1-pyridin-2-yl-cyclohexylmethyl)-carbamoyl]-ethyl}-2-nitro-benzamide] were, in that order, greater than 10 µM and 4.58 µM.
The corresponding values for `C[C@@](Cc1c[nH]c2ccccc12)(NC(=O)c1ccc2[nH]ccc2c1)C(=O)NCC1(c2ccccn2)CCCCC1` [Example 67, 1H-Indole-5-carboxylic acid {(S)-2-(1H-indol-3-yl)-1-methyl-1-[(1-pyridin-2-yl-cyclohexylmethyl)-carbamoyl]-ethyl}-amide] are greater than 10 µM and 1.88 µM.
Regarding `C[C@@](Cc1c[nH]c2ccccc12)(NC(=O)c1ccc([N+](=O)[O-])cc1)C(=O)NCC1(c2ccccn2)CCCCC1` [Example 36, N—{(S)-2-(1H-Indol-3-yl)-1-methyl-1-[(1-pyridin-2-yl-cyclohexylmethyl)-carbamoyl]-ethyl}-4-nitro-benzamide], the values for the IC50 on human GRP receptor (BB2) (setting [3]) and on human NMB receptor (BB1) (setting [3]) were greater than 10 µM and 0.343 µM, respectively.
Take `Cc1ccccc1COC(=O)N[C@@](C)(Cc1c[nH]c2ccccc12)C(=O)NCC1(c2ccccn2)CCCCC1` [Example 97, {(S)-2-(1H-Indol-3-yl)-1-methyl-1-[(1-pyridin-2-yl-cyclohexylmethyl)-carbamoyl]-ethyl}-carbamic acid 2-methyl-benzyl ester]: the IC50 on human GRP receptor (BB2) (setting [1]) is greater than 10 µM; at human NMB receptor (BB1) (setting [1]), 0.751 µM.
The like results for `Cc1ccc(COC(=O)N[C@@](C)(Cc2c[nH]c3ccccc23)C(=O)NCC2(c3ccccn3)CCCCC2)cc1` [Example 108, {(S)-2-(1H-Indol-3-yl)-1-methyl-1-[(1-pyridin-2-yl-cyclohexylmethyl)-carbamoyl]-ethyl}-carbamic acid 4-methyl-benzyl ester] were, in that order, greater than 10 µM and 1.08 µM.
Regarding `Cc1cccc(C(=O)N[C@@](C)(Cc2c[nH]c3ccccc23)C(=O)NCC2(c3ccccn3)CCCCC2)n1` [Example 76, 6-Methyl-pyridine-2-carboxylic acid {(S)-2-(1H-indol-3-yl)-1-methyl-1-[(1-pyridin-2-yl-cyclohexylmethyl)-carbamoyl]-ethyl}-amide], the IC50 was greater than 10 µM on human GRP receptor (BB2) (setting [3]) and 2.82 µM on human NMB receptor (BB1) (setting [3]).
The corresponding values for `CN(C)c1ccc(CC(=O)N[C@@](C)(Cc2c[nH]c3ccccc23)C(=O)NCC2(c3ccccn3)CCCCC2)cc1` [Example 83, (S)-2-[2-(4-Dimethylamino-phenyl)-ethanoylamino]-3-(1H-indol-3-yl)-2-methyl-N-(1-pyridin-2-yl-cyclohexylmethyl)-propionamide] are greater than 10 µM and 2.71 µM.
For the molecule `C[C@@](Cc1c[nH]c2ccccc12)(NC(=O)c1ccsc1)C(=O)NCC1(c2ccccn2)CCCCC1` [Example 65, Thiophene-3-carboxylic acid {(S)-2-(1H-indol-3-yl)-1-methyl-1-[(1-pyridin-2-yl-cyclohexylmethyl)-carbamoyl]-ethyl}-amide], the IC50 at human GRP receptor (BB2) (setting [3]) was greater than 10 µM; on human NMB receptor (BB1) (setting [3]), 2.2 µM.
Turning to `C[C@@](Cc1c[nH]c2ccccc12)(NC(=O)Cc1ccsc1)C(=O)NCC1(c2ccccn2)CCCCC1` [Example 56, (S)-3-(1H-Indol-3-yl)-2-methyl-N-(1-pyridin-2-yl-cyclohexylmethyl)-2-(2-thiophen-3-yl-ethanoylamino)-propionamide], the IC50 was greater than 10 µM at human GRP receptor (BB2) (setting [3]) and 1.44 µM at human NMB receptor (BB1) (setting [3]).
Turning to `C[C@@](Cc1c[nH]c2ccccc12)(NC(=O)c1cccc(Cl)c1)C(=O)NCC1(c2ccccn2)CCCCC1` [Example 39, 3-Chloro-N—{(S)-2-(1H-indol-3-yl)-1-methyl-1-[(1-pyridin-2-yl-cyclohexyl-methyl)-carbamoyl]-ethyl}-benzamide], the IC50 on human GRP receptor (BB2) (setting [3]) was greater than 10 µM; at human NMB receptor (BB1) (setting [3]), 1.27 µM.
For `C[C@@](Cc1c[nH]c2ccccc12)(NC(=O)OCc1ccc([N+](=O)[O-])cc1)C(=O)NCC1(c2ccccn2)CCCCC1` [Example 96, {(S)-2-(1H-Indol-3-yl)-1-methyl-1-[(1-pyridin-2-yl-cyclohexylmethyl)-carbamoyl]-ethyl}-carbamic acid 4-nitro-benzyl ester], the IC50 on human GRP receptor (BB2) (setting [1]) was determined as 0.463 µM; on human NMB receptor (BB1) (setting [1]) it was 0.041 µM.
For the molecule `C[C@@](Cc1c[nH]c2ccccc12)(NC(=O)OCc1ccc(Cl)cc1)C(=O)NCC1(c2ccccn2)CCCCC1` [Example 93, {(S)-2-(1H-Indol-3-yl)-1-methyl-1-[(1-pyridin-2-yl-cyclohexylmethyl)-carbamoyl]-ethyl}-carbamic acid 4-chloro-benzyl ester], the IC50 at human GRP receptor (BB2) (setting [1]) is greater than 10 µM; on human NMB receptor (BB1) (setting [1]), 0.681 µM.
For the molecule `COc1ccccc1CC(=O)N[C@@](C)(Cc1c[nH]c2ccccc12)C(=O)NCC1(c2ccccn2)CCCCC1` [Example 85, (S)-3-(1H-Indol-3-yl)-2-[2-(2-methoxy-phenyl)-ethanoylamino]-2-methyl-N-(1-pyridin-2-yl-cyclohexylmethyl)-propionamide], the values for the IC50 at human GRP receptor (BB2) (setting [3]) and at human NMB receptor (BB1) (setting [3]) were 2.48 µM and 1.33 µM, respectively.
For the molecule `Cc1ccsc1C(=O)N[C@@](C)(Cc1c[nH]c2ccccc12)C(=O)NCC1(c2ccccn2)CCCCC1` [Example 74, 3-Methyl-thiophene-2-carboxylic acid {(S)-2-(1H-indol-3-yl)-1-methyl-1-[(1-pyridin-2-yl-cyclohexylmethyl)-carbamoyl]-ethyl}-amide], the figures for the IC50 at human GRP receptor (BB2) (setting [3]) and on human NMB receptor (BB1) (setting [3]) were greater than 10 µM and 0.744 µM, respectively.
The like results for `C[C@@](Cc1c[nH]c2ccccc12)(NC(=O)c1ccccc1-n1cccc1)C(=O)NCC1(c2ccccn2)CCCCC1` [Example 81, N—{(S)-2-(1H-Indol-3-yl)-1-methyl-1-[(1-pyridin-2-yl-cyclohexylmethyl)-carbamoyl]-ethyl}-2-pyrrol-1-yl-benzamide] were, in that order, greater than 10 µM and 0.361 µM.
In the case of `C[C@@](Cc1c[nH]c2ccccc12)(NS(=O)(=O)c1cccc(F)c1)C(=O)NCC1(c2ccccn2)CCCCC1` [Example 126], the results for the IC50 at human GRP receptor (BB2) and on human NMB receptor (BB1) were 2.76 µM and 0.407 µM, respectively.
Take `Cc1ccc(Oc2ccccc2)c(S(=O)(=O)N[C@@](C)(Cc2c[nH]c3ccccc23)C(=O)NCC2(c3ccccn3)CCCCC2)c1` [Example 152, (S)-3-(1H-indol-3-yl)-2-methyl-2-(5-methyl-2-phenoxy-benzenesulfonylamino)-N-(1-pyridin-2-yl-cyclohexylmethyl)-propionamide]: the values for the IC50 at human GRP receptor (BB2) and on human NMB receptor (BB1) were greater than 10 µM and 0.076 µM, respectively.
As for `COc1ccc(C2(CNC(=O)[C@](C)(Cc3ccccc3)Nc3nc(-c4ccc([N+](=O)[O-])cc4)co3)CCCCC2)nc1` [Example 12, (S)-N-[1-(5-Methoxy-pyridin-2-yl)-cyclohexylmethyl]-2-methyl-2-[4-(4-nitro-phenyl)-oxazol-2-ylamino]-3-phenyl-propionamide], the Ki at human GRP receptor (BB2) (Table 1, human GRP receptor binding affinity, Ki from IC50 by Cheng-Prusoff, read-out: GRP Kj) came to 2.82 µM; at human NMB receptor (BB1), 0.016 µM.

Values taken from patent US20020169101A1, “Treatment of sexual dysfunction” (priority 1999, published 2002).
